Key:
LIS1 protein [1] = assay: Expression amount of LIS1 protein in dorsal root ganglion neurons by western blotting; type: cell-based, mouse; conditions: 200 μM
Description: Dorsal root ganglion neurons were isolated from mice (3 days old or 15 days old) and the expression amount of LIS1 protein was analyzed in the order of time sequence from initiation of culture. Protein extraction was performed by adding 100 μl of a protein-dissolving liquid (30 mM Tris-HCl, pH 6.8, 1.5% sodium dodecyl sulfate (SDS), 0.3% bromophenol blue (BPB), 0.3% 2-mercapto-ethanol (2-ME), and 15% glycerol) per 5×10^4 dorsal root ganglion neurons and further performing ultrasonic treatment to achieve complete solubilization. After the heat treatment at 95° C. for 5 minutes, 1 μl of the obtained protein lysate was separated by 12.5% SDS-acrylamide electrophoresis and subjected to western blotting using anti-LIS1 antibody to detect LIS protein (the left-side figure in FIG. 2). The intensity of the detected band was analyzed (after correction with the intensity of the GAPDH band), and the expression ratio of LIS protein was determined (right-side figure in FIG. 2). […]
After the incubation, the procedures were performed in the same manner as described above in the “Analysis of Expression Amount of LIS1 Protein in Dorsal Root Ganglion Neurons” section to detect LIS protein by western blotting (the left-side figure in FIG. 5). Further, the intensity of the detected band was analyzed to determine the expression ratio of the LIS protein (the right-side figure in FIG. 5).

[2] = tested on: sciatic nerve injury model mice; assay: Histological analysis of sciatic nerves in sciatic nerve injury models; type: in vivo, mouse
Description: (§1) To investigate the effect of SNJ1945 on promoting peripheral nerve regeneration, mouse sciatic nerve injury models were prepared and histologically analyzed. The models were used as sciatic nerve injury model mice produced according to the method of Wall et al. (Wall, 1979). More specifically, model mice were produced in the following manner. Four-week-old female mice were subjected to general anesthesia with sevoflurane inhalation anesthesia (Mylan N.V.) and laid down in a prone position. The skin on the femur was incised. The muscle layer was peeled off carefully and quickly so as not to injure the sciatic nerve. The nerve was severed (completely injured) at mid-thigh at one point with an interval of 40 mm from the periphery. The muscle layer and the skin were then sutured and disinfected. The mice were used as complete nerve injury model mice. Administration of SNJ1945 was performed by mixing SNJ-1945 into a diet (CE-2, CLEA Japan, Inc.) and orally administering the mixture continuously to each mouse in an amount of 200 μg of SNJ1945/per gram of body weight/day. Mice that were subjected to the same complete nerve injury and maintained on a diet not containing SNJ1945 (CE-2, CLEA Japan, Inc.) were used as a control group.
For histological analysis, after the mice were sacrificed by cervical dislocation, sciatic nerves were removed and fixed in 4% paraformaldehyde for 24 hours. After the paraformaldehyde was replaced with PBS, the sciatic nerves were embedded in paraffin. The tissue block was cut into 5-μm-thick sections and each tissue section was adhered onto a glass slide. For hematoxylin and eosin staining, each tissue section was 1) deparaffinized, 2) washed with water, 3) stained with Mayer's or Carrazzi's hematoxylin, 4) lightly washed with running water, 5) allowed to develop color, 6) stained with an eosin solution for 1 minute, and 7) subjected to dehydration, clearing, and embedding; and morphologically observed under an optical microscope.
Samples for observation under an electron microscope were prepared in the following manner. Sciatic nerves were removed in the same manner as above and then placed in a fixative (2.5% glutaraldehyde). Ten minutes after being placed in the fixative, the sciatic nerves were removed and placed in several drops of the fixative that had been dropped on a thick plastic sheet beforehand, and cut into thin sections. Post-fixation was performed using an aqueous osmium tetroxide solution. Next, free water contained in the tissue was replaced with ethyl alcohol. In order to make ultrathin sections, the tissue was embedded in an epoxy resin, and tissue sections were produced with an ultramicrotome. Observation was performed using a transmission electron microscope (Hitachi Ltd.: H-7500).

[3] = tested on: sciatic nerve injury model mice; assay: Functional analysis of sciatic nerves in sciatic nerve injury models; type: in vivo, mouse
Description: as §1, with “Mice that were subjected to the same complete nerve injury and maintained on a diet not containing SNJ1945 (CE-2, CLEA Japan, Inc.) were used as a control group.” left out
To further investigate the peripheral nerve regeneration promotion effect of SNJ1945, motor function of sciatic nerve injury model mice was evaluated based on the sciatic function index (SFI) and print length factor (PLI) using Footprint (Bain et al., 1989).

LIS1 protein [4] = conditions: disclosed in WO2012/074120; based on calpain inhibitory activity; cited from earlier work
[5] = tested on: dorsal root ganglion neurons; assay: Effect of SNJ1945 on axon elongation in mouse dorsal root ganglion neurons; type: cell-based; conditions: 200 μM, 24 or 48 hours, vs 1% DMSO
Description: Dorsal root ganglions were aseptically extracted from postnatal mice (3, 10, or 15 days old) under a stereoscopic microscope, and tissue fragments were dispersed by gentle pipetting and then treated with 0.025% trypsin/0.0013% DNaseI (both being final concentrations) at 37° C. for 20 minutes. After centrifugation, a BME culture solution (Gibco) containing 10% equine blood serum was added, and washing was performed. After the enzyme reaction was stopped, a BME culture solution containing 0.0052% DNaseI/10% equine blood serum (both being final concentrations) was added, and pipetting was performed. […] After incubation for another 15 minutes at room temperature, the resulting aggregates were washed well and carefully embedded using glycerol for fluorescence microscope observation (Merck) so as not to break up the aggregates. […] Dorsal root ganglion neurons were also isolated from LIS1 hetero mice (3 days old) and analyzed in the same manner.
Dorsal root ganglion neurons were isolated from 3-day-old mice or 15-day-old mice, and the correlation between the presence or absence of SNJ1945 addition and axon length was analyzed. […]

[6] = complete nerve injury model, oral in diet 200 μg/g body weight/day, 1 week after administration, vs control group

COCCOCCOC(=O)N[C@@H](CC(C)C)C(=O)N[C@@H](Cc1ccccc1)C(=O)C(=O)NC1CC1 [Compound 17, ((1S)-1-((((1S)-1-Benzyl-2,3-dioxo-3-(cyclopropylamino)propyl)amino)carbonyl)-3-methylbutyl)carbamic acid 5-methoxy-3-oxapentyl ester]
expression amount of LIS1 protein (LIS1 protein [1]; neurons from 3-day-old mice): not able to significantly increase the expression amount
expression amount of LIS1 protein (LIS1 protein [1]; neurons from 15-day-old mice): significantly increased the expression amount of LIS1
myelin regeneration in sciatic nerves after nerve cell degeneration ([2]; administration started 1 week after severance, analyzed 1 month after severance): significantly high myelin regeneration
recovery of myelin (electron microscope) [2, 6]: recovery of myelin
recovery of sciatic nerves (hematoxylin and eosin staining) [2, 6]: significant recovery of sciatic nerves
number of myelin whose recovery was recognized (regeneration of myelin in sciatic nerves) ([2]; complete nerve injury model, oral in diet, FIG. 24, vs control group): significantly high regeneration of myelin
condition of the paw ([3]; complete injury model, one month after administering, vs control group mouse): recovered to the extent that the mouse could grasp the cage
recovery of complete nerve injury models (motor function) ([3]; continuous administration): further promoted recovery
effect of amplifying LIS1 protein (LIS1 protein [4]): has an effect of amplifying LIS1 protein
axon elongation (axon length) ([5]; neurons from 3-day-old mice): axon elongation promotion effect
axon elongation (axon length) ([5]; neurons from 15-day-old mice): significant axon elongation promotion effect

From patent US11844776B2, “Composition for treatment and/or prevention of peripheral nerve disorder” (OSAKA CITY UNIVERSITY, priority 2016, dated 2023)
